# Reference: publication PMC7998309, “Structural-Based Optimizations of the Marine-Originated Meridianin C as Glucose Uptake Agents by Inhibiting GSK-3β” (Marine Drugs, 2021)
# Legend:
# HepG2 cells = assay: Cell glucose uptake assay in HepG2 cells; type: cell-based, human; details: relative glucose uptake at 5 µM in HepG2 cells, 3 h, compared with original glucose concentration of the medium; na = not active at 5 µM
# Procedure: (§1) The hepatocyte cell line HepG2 cells obtained from the Type Culture Collection of the Chinese Academy of Sciences (Shanghai, China) were maintained in high-glucose DMEM (Gibco) supplemented with 10% fetal bovine serum (FBS) and 1% penicillin-streptomycin in an atmosphere of 5% CO2 at 37 °C.
# Into a 96-well plate, 5 × 10^3 HepG2 cells per well were seeded. After 48 h, phenol red-free DMEM (Gibco) with 1% FBS was transferred to deprive the cells overnight, and then the tested compounds dissolved in a glucose-HEPES buffer (glucose concentration was 100 µg/mL) at a concentration of 5 µM were added to the culture system. Three hours later, the culture supernatants were collected and the glucose concentrations were detected using the Glucose (GO) Assay Kit (Sigma-Aldrich Corp.). Compared with the original glucose concentration of the buffer, the relative glucose uptake was calculated.
# [1] = MTT assay for cell viability (cytotoxicity); type: cell-based, human; details: human; HepG2 cells, 48 h incubation, MTT
# Procedure: as §1
# Into a 96-well plate, 1 × 10^3 HepG2 cells per well were seeded. After 24 h, stock solutions of test compounds in DMSO were diluted in DMEM to ≤0.1% final DMSO concentration. Cells were treated with various concentrations (2.5–25 µM) of tested compounds for 48 h, and the MTT solution (0.5 mg/mL) was added. After 4 h of incubation at 37 °C for MTT-formazan formation, the supernatant was discarded and 100 µL of DMSO was applied into each well to dissolve formazan crystals. Absorbance at 490 nm was determined spectrophotometrically by using a microplate reader (Epoch, BioTek Instruments, Inc., Winooski, VT, USA).
SMILES,melting point [°C],Cell Glucose Uptake (%) (HepG2 cells),CC50 at 48 h [1] [µM]
"Brc1ccc2[nH]cc(-c3ccnc(Nc4ccccc4Br)n3)c2c1 [B7, 4-(5-Bromo-1H-indol-3-yl)-N-(2-bromophenyl) pyrimidin-2-amine]",177.8 to 178.4,26%,> 25
"COc1cccc(OC)c1Nc1nccc(-c2c[nH]c3ccc(Br)cc23)n1 [B31, 4-(5-Bromo-1H-indol-3-yl)-N-(2,6-dimethoxyphenyl) pyrimidin-2-amine]",244.3 to 245.6,16%,19.2
"Cc1ccccc1Nc1nccc(-c2c[nH]c3ccc(Br)cc23)n1 [B13, 4-(5-Bromo-1H-indol-3-yl)-N-(o-tolyl) pyrimidin-2-amine]",187.6 to 188.4,14.9%,> 25
"Cn1sc(=O)n(Cc2ccccc2)c1=O [TDZD-8, 4-benzyl-2-methyl-1,2,4-thiadiazolidine-3,5-dione, reference compound]",–,16%,> 25
"Clc1ccc(Nc2nccc(-c3c[nH]c4ccc(Br)cc34)n2)cc1 [B6, 4-(5-Bromo-1H-indol-3-yl)-N-(4-chlorophenyl) pyrimidin-2-amine]",273.5 to 274.8,14.4%,21.1
"CC(C)c1ccccc1Nc1nccc(-c2c[nH]c3ccc(Br)cc23)n1 [B19, 4-(5-Bromo-1H-indol-3-yl)-N-(2-isopropylphenyl) pyrimidin-2-amine]",110.5 to 111.3,13%,> 25
"Fc1cccc(Nc2nccc(-c3c[nH]c4ccc(Br)cc34)n2)c1 [B2, 4-(5-Bromo-1H-indol-3-yl)-N-(3-fluorophenyl) pyrimidin-2-amine]",211.8 to 212.4,no change,10.7
"COc1ccccc1Nc1nccc(-c2c[nH]c3ccc(Br)cc23)n1 [B16, 4-(5-Bromo-1H-indol-3-yl)-N-(2-methoxyphenyl) pyrimidin-2-amine]",207.9 to 208.3,17%,21.4
"Fc1ccc(Nc2nccc(-c3c[nH]c4ccc(Br)cc34)n2)cc1 [B3, 4-(5-Bromo-1H-indol-3-yl)-N-(4-fluorophenyl) pyrimidin-2-amine]",246.8 to 247.7,7.4%,12.8
"Clc1ccccc1Nc1nccc(-c2c[nH]c3ccc(Br)cc23)n1 [B4, 4-(5-Bromo-1H-indol-3-yl)-N-(2-chlorophenyl) pyrimidin-2-amine]",173.8 to 174.6,22%,> 25
"Brc1ccc(Nc2nccc(-c3c[nH]c4ccc(Br)cc34)n2)cc1 [B9, 4-(5-Bromo-1H-indol-3-yl)-N-(4-bromophenyl) pyrimidin-2-amine]",276.7 to 277.5,12.6%,20.3
"FC(F)(F)c1cccc(Nc2nccc(-c3c[nH]c4ccc(Br)cc34)n2)c1 [B11, 4-(5-Bromo-1H-indol-3-yl)-N-(3-(trifluoromethyl)phenyl) pyrimidin-2-amine]",171.8 to 172.3,–,17.6
"Cc1cc(C)cc(Nc2nccc(-c3c[nH]c4ccc(Br)cc34)n2)c1 [B27, 4-(5-Bromo-1H-indol-3-yl)-N-(3,5-dimethylphenyl) pyrimidin-2-amine]",184.6 to 185.3,–,6
"FC(F)(F)c1ccccc1Nc1nccc(-c2c[nH]c3ccc(Br)cc23)n1 [B10, 4-(5-Bromo-1H-indol-3-yl)-N-(2-(trifluoromethyl)phenyl) pyrimidin-2-amine]",150.5 to 151.3,20.2%,> 25
"COc1ccc(Nc2nccc(-c3c[nH]c4ccc(Br)cc34)n2)cc1 [B18, 4-(5-Bromo-1H-indol-3-yl)-N-(4-methoxyphenyl) pyrimidin-2-amine]",245.7 to 246.3,6.1%,6
Nc1nccc(-c2c[nH]c3ccc(Br)cc23)n1 [meridianin C],–,< 5%,13
"Brc1cc(Br)cc(Nc2nccc(-c3c[nH]c4ccc(Br)cc34)n2)c1 [B25, 4-(5-Bromo-1H-indol-3-yl)-N-(3,5-dibromophenyl) pyrimidin-2-amine]",193.4 to 193.7,–,> 25

# Now from value to molecule, other results behind:
melting point [°C],SMILES,Cell Glucose Uptake (%) (HepG2 cells),CC50 at 48 h [1] [µM]
291.7 to 292.4,"Cc1ccc(C(=O)Nc2ccc(-c3cnc(N)nc3-c3c[nH]c4ccc(Br)cc34)cc2)cc1 [A21, N-(4-(2-amino-4-(5-bromo-1H-indol-3-yl)pyrimidin-5-yl)phenyl)-4-methylbenzamide]",24%,6.9
163.5 to 164.3,"Nc1ncc(-c2ccc(NC(=O)c3cc(F)ccc3F)cc2)c(-c2c[nH]c3ccc(Br)cc23)n1 [A25, N-(4-(2-amino-4-(5-bromo-1H-indol-3-yl)pyrimidin-5-yl)phenyl)-2,5-difluorobenzamide]",–,8.9
172.6 to 173.3,"COc1cccc(C(=O)Nc2ccc(-c3cnc(N)nc3-c3c[nH]c4ccc(Br)cc34)cc2)c1 [A23, N-(4-(2-amino-4-(5-bromo-1H-indol-3-yl)pyrimidin-5-yl)phenyl)-3-methoxybenzamide]",–,14.7
207.6 to 208.4,"Nc1ncc(-c2ccc(NC(=O)Cc3ccccc3)cc2)c(-c2c[nH]c3ccc(Br)cc23)n1 [A5, N-(4-(2-amino-4-(5-bromo-1H-indol-3-yl)pyrimidin-5-yl)phenyl)-2-phenylacetamide]",–,20.9
172.6 to 173.3,"CC(C)C(=O)Nc1ccc(-c2cnc(N)nc2-c2c[nH]c3ccc(Br)cc23)cc1 [A3, N-(4-(2-amino-4-(5-bromo-1H-indol-3-yl)pyrimidin-5-yl)phenyl) Isobutyramide]",–,10.8
211.5 to 212.4,"Nc1ncc(-c2ccc(NC(=O)c3ccccc3Cl)cc2)c(-c2c[nH]c3ccc(Br)cc23)n1 [A10, N-(4-(2-amino-4-(5-bromo-1H-indol-3-yl)pyrimidin-5-yl)phenyl)-2-chlorobenzamide]",–,18.4
189.3 to 190.2,"Nc1ncc(-c2ccc(NC(=O)c3ccc4ccccc4c3)cc2)c(-c2c[nH]c3ccc(Br)cc23)n1 [A29, N-(4-(2-amino-4-(5-bromo-1H-indol-3-yl)pyrimidin-5-yl)phenyl)-2-naphthamide]",–,> 25
170.7 to 171.6,"Cc1ccccc1C(=O)Nc1ccc(-c2cnc(N)nc2-c2c[nH]c3ccc(Br)cc23)cc1 [A19, N-(4-(2-amino-4-(5-bromo-1H-indol-3-yl)pyrimidin-5-yl)phenyl)-2-methylbenzamide]",–,10.3
178.6 to 179.4,"Nc1ncc(-c2ccc(NC(=O)c3ccc(F)cc3)cc2)c(-c2c[nH]c3ccc(Br)cc23)n1 [A9, N-(4-(2-amino-4-(5-bromo-1H-indol-3-yl)pyrimidin-5-yl)phenyl)-4-fluorobenzamide]",–,6
206.6 to 207.1,"Fc1ccccc1Nc1nccc(-c2c[nH]c3ccc(Br)cc23)n1 [B1, 4-(5-Bromo-1H-indol-3-yl)-N-(2-fluorophenyl) pyrimidin-2-amine]",20%,10.5
312.7 to 313.4,"Nc1ncc(-c2ccc(NC(=O)c3ccc(C(F)(F)F)cc3)cc2)c(-c2c[nH]c3ccc(Br)cc23)n1 [A18, N-(4-(2-amino-4-(5-bromo-1H-indol-3-yl)pyrimidin-5-yl)phenyl)-4-(trifluoromethyl) Benzamide]",–,4.2
176.6 to 177.3,"Nc1ncc(-c2ccc(NC(=O)c3cccc(Br)c3)cc2)c(-c2c[nH]c3ccc(Br)cc23)n1 [A14, N-(4-(2-amino-4-(5-bromo-1H-indol-3-yl)pyrimidin-5-yl)phenyl)-3-bromobenzamide]",–,> 25
183.6 to 184.3,"Nc1ncc(-c2ccc(NC(=O)c3cccc(F)c3)cc2)c(-c2c[nH]c3ccc(Br)cc23)n1 [A8, N-(4-(2-amino-4-(5-bromo-1H-indol-3-yl)pyrimidiN-5-yl)phenyl)-3-fluorobenzamide]",–,6.8
159.6 to 160.4,"Nc1ncc(-c2ccc(NC(=O)c3ccccc3F)cc2)c(-c2c[nH]c3ccc(Br)cc23)n1 [A7, N-(4-(2-amino-4-(5-bromo-1H-indol-3-yl)pyrimidin-5-yl)phenyl)-2-fluorobenzamide]",–,18.1
